The experiment deals with Ubiquitin carboxyl-terminal hydrolase 28 (Homo sapiens) (UniProt Q96RU2). The experiment can be described thus: Ubiquitin-specific peptidase 28 DUB inhibitors, biochemical concentration-dependence assay, validation of primary screening hits (AID 1645866). Particulars: purified USP28, ubiquitin-rhodamine fluorescence, 30 min.

Each structure is given as a SMILES string. pIC50: −log10 of the molar value. The source made the active and inactive calls.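 How the source made its calls: active means in confirmatory dose-response testing, peak deubiquitinase inhibition of 30% or more; inactive means the rest.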

Broadly, the pIC50 is −log10 of the IC50, conventionally taken in molar units. For orientation: IC50 means the midpoint of a concentration-inhibition curve.

Chain of Ubiquitin carboxyl-terminal hydrolase 28 (Homo sapiens) (Q96RU2 whole entry, looked up): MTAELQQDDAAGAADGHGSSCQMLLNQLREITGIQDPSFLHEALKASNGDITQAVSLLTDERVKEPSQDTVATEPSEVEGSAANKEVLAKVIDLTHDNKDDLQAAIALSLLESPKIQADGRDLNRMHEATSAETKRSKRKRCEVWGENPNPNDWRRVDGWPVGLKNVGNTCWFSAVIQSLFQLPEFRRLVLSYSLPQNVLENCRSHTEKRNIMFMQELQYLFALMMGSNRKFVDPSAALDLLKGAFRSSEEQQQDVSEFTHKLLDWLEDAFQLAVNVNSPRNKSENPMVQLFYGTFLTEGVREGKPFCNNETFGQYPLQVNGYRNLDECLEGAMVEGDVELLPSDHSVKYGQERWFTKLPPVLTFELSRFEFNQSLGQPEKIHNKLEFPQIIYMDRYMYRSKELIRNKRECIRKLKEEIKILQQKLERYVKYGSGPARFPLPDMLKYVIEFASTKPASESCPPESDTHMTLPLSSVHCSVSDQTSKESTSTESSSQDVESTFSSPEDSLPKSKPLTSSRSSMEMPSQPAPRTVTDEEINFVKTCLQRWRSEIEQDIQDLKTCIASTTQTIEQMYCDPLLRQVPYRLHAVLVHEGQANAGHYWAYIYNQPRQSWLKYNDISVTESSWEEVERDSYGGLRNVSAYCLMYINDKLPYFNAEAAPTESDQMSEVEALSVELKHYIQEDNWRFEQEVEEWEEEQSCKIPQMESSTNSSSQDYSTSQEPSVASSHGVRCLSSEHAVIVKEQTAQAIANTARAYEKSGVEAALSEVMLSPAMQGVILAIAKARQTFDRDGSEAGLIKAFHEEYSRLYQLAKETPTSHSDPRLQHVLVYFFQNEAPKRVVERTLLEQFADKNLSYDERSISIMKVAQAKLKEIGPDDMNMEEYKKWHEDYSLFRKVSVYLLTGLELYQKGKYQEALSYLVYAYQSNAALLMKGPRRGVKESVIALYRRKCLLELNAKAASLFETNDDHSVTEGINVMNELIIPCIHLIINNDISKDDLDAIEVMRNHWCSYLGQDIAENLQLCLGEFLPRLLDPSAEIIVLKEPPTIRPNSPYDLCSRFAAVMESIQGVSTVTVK

Turning to `Cc1ccc2[nH]c3c(=O)n(CC4CCCO4)cnc3c2c1` (stereo unspecified), the pIC50 was 4.74. Regarding `O=C(CSc1ncnc2c1sc1cccc(F)c12)N1CCCCCC1`, the IC50 is > 50 µM (inactive).

Turning to `O=C(CCn1c(=O)c2sccc2n(CC(=O)OCc2ccccc2)c1=O)NCc1ccc2c(c1)OCO2`, the pIC50 is 4.74. In the case of `Cc1ccc2c(c1C)NC(=O)[C@]21[C@@H]2C(=O)N(c3cc(Cl)ccc3Cl)C(=O)[C@@H]2[C@@H]2CCCN21`, the IC50 was > 50 µM (inactive).

Consider `O=C(NCCc1ccccn1)c1cc(-c2ccc(Br)cc2)n[nH]1`, for which the negative-log IC50 (pIC50) is 4.86. The same measure, in the same setting: next, `O=C(Nc1ccc(F)cc1F)NC1Cc2ccccc2C1`: 4.36. Regarding `O=S(=O)(c1ccccc1Cl)N1CCN(c2ccc3nnc(-c4ccco4)n3n2)CC1`, the IC50 is > 50 µM (inactive). With `CCOC(=O)c1ccc(NC(=O)c2cnc(N3CCOCC3)nc2)cc1`, the IC50 was > 50 µM (inactive).

As for `c1cncc(-c2nc(Nc3ccc4c(c3)OCCO4)c3ccccc3n2)c1`, the pIC50 is 4.46. Consider `CCOc1ccc(NC(=O)Cn2c(=O)n(CCCCCC(=O)NCc3ccc(F)cc3)c(=O)c3sccc32)cc1`, for which the negative-log IC50 (pIC50) is 5.71.

As for `COc1ccc(S(=O)(=O)Nc2ccc(Nc3ccc(-n4cccn4)nn3)cc2)cc1`, the negative logarithm of the IC50 (pIC50) was 4.39.

On to `COc1c(O)cc(CC(=O)O)c(C(C)=O)c1O`, for which the negative logarithm of the IC50 (pIC50) is 4.98.

`O=C(CNC(=O)c1cccc(F)c1)Nc1nc2ccccc2[nH]1`: the pIC50 is 4.61.

For the compound `O=C(Nc1cccc(OC(=O)c2ccc(Cl)cc2)c1)c1ccc(Cl)cc1`, the pIC50 was 4.38. Regarding `COc1ccc(NC(=O)c2[nH]nc3c2COc2ccccc2-3)c(OC)c1`, the negative logarithm of the IC50 (pIC50) is 5.16.

In the case of `CCc1ccc(-n2nc(C)c3c2NC(=O)CC3C(=O)c2ccc3c(c2)OCCO3)cc1` (stereo unspecified), the pIC50 is 4.58.

For the compound `CCOCCCn1c(SCC(=O)Nc2ccccc2C(F)(F)F)nc2ccccc2c1=O`, the pIC50 is 4.77. Same read-out and setting: next, `O=C(CN1CCCCC1)Nc1nnc(-c2ccc([N+](=O)[O-])cc2)s1`: 4.86. In the case of `O=C(/C=C/c1ccc(F)cc1)Nc1ccc2c(c1)OCCO2`, the pIC50 was 5.61.

On to `CC1CCN(C(=O)c2cn(-c3cc(N4CCC(C)CC4)ncn3)cn2)CC1`, for which the pIC50 is 4.82. Still for that read-out and setting: the result for `CCC1=C(c2ccc(C)cc2)S(=O)(=O)NC1=NCC(=O)NC(C)c1ccccc1` (stereo unspecified) reads 4.71. In the case of `COc1ccc(-n2nnc3c(SCC(=O)Nc4cc(C)on4)ncnc32)cc1`, the IC50 was > 50 µM (inactive). Regarding `CCc1cc2c(=O)[nH]c(Cc3ccc(OC)cc3)nc2s1`, the pIC50 was 4.70. Regarding `CC(C)CC[C@H]1O[C@@H](CC(=O)O)Cc2cc3c(c(O)c21)C(=O)c1sc(=O)n(C)c1C3=O`, the pIC50 is 5.56. As to `Cc1cc(O)c2c3c(c(O)cc2c1)C(=O)c1c(O)cccc1C3=O`, the pIC50 is 5.72. With `Cc1ccc(C)c(NS(=O)(=O)c2cc(-c3cnc(C4CC4)o3)ccc2C)c1`, the negative-log IC50 (pIC50) was 4.46. Regarding `O=C(CN1C(=O)NC2(CCCCC2)C1=O)Nc1ccc([N+](=O)[O-])cc1`, the pIC50 was 4.48. On the same count and under the same terms, next, `Cn1cc(NC(=O)Nc2cccc3ccccc23)c2ccccc21`: 4.78; `Fc1ccc(CSc2nnc(-c3ccccn3)n2Cc2ccco2)cc1`: 4.66. As for `O=C(Cc1c[nH]c2ccccc12)Nc1nc2ccccc2s1`, the pIC50 was 4.67. On the same count and under the same terms, next, `O=C(OC1CSc2nc3ccccc3n2C1)c1ccc([N+](=O)[O-])o1` (stereo unspecified): 4.48; `CCOc1ccc(NC(=O)Cn2c(=O)n(CCC(=O)NCc3ccco3)c(=O)c3ccccc32)cc1`: 5.35; `CC1=CC(=O)C(C2=C(O)C(=O)C(C)=CC2=O)=C(O)C1=O`: 4.69. Turning to `O=S(=O)(c1ccc(F)cc1)N1CCCC1c1ccnc(Nc2cnccn2)n1` (stereo unspecified), the IC50 was > 50 µM (inactive).

For the compound `Cc1cccc(-n2ccnc(SCC(=O)Nc3ccc(Cl)cc3F)c2=O)c1`, the pIC50 is 5.41. Same read-out and setting: the result for `O=C(Nc1ccncc1)c1ncoc1-c1cccc(Cl)c1` reads 4.49; that for `Cc1nnc(C(=O)Nc2ccc(C(=O)NCc3ccccc3C)cc2)s1`, 4.79; that for `CC(c1ccccc1)n1c(-c2ccc(F)cc2)nc2c(c(=O)c3ccccc3n2C)c1=O` (stereo unspecified), 5.73.

Take `COc1cc(-c2ccno2)ccc1S(=O)(=O)Nc1ccccc1Cl`: the pIC50 is 5.37. Turning to `COc1ccc(NC(=O)COc2ccc3ccc(=O)oc3c2)cc1`, the pIC50 was 4.51. `CCC(C)Oc1cccc(C(=O)Nc2ccc(CN3CCOCC3)cc2)c1` (stereo unspecified): the pIC50 is 5.76.

For `Cc1ccc(S(=O)(=O)Nc2ccccc2SCCS(=O)(=O)c2ccc(Cl)cc2)cc1`, the IC50 is > 50 µM (inactive).

In the case of `CCOc1ccc(NC(=O)CSc2nc3n[nH]c(C)c3c(=N)n2-c2ccc(OC)cc2)cc1`, the negative logarithm of the IC50 (pIC50) is 4.47. Turning to `CC(C)(C)c1ccc(C(=O)Nc2ccc(Cn3cncn3)cc2)cc1`, the pIC50 was 4.55. `CCC(=O)OCc1cnc(C)c2oc(=O)c(-c3nc(-c4ccccc4)no3)cc12`: the IC50 was > 50 µM (inactive). Regarding `Fc1cnc(N2CC[C@H]3CO[C@H](CNc4ncccn4)[C@H]3C2)nc1`, the IC50 is > 50 µM (inactive). In the case of `CSc1cccc(C(=O)Nc2ccc(-c3nc4ccccc4[nH]3)cc2)c1`, the pIC50 was 5.24. In the case of `O=c1c2c(ccn1Cc1cc(F)ccc1F)ccn2Cc1cccnc1`, the pIC50 is 5.14. In the case of `CCCN1C=NS(=O)(=O)c2cc(C(=O)Nc3ccc(OC)c(Cl)c3)ccc21`, the pIC50 is 4.45. Consider `Cc1cc(N2CCN(c3ncccn3)CC2)nc2ccc(NC(=O)c3ccncc3)cc12`, for which the pIC50 was 5.14.

Regarding `Cc1cc(C(=O)Nc2ccc3nc(N4CCN(c5ncccn5)CC4)cc(C)c3c2)ccc1[N+](=O)[O-]`, the pIC50 is 4.85. The same measure, in the same setting: the result for `Cc1nn(-c2ccccc2)c(C)c1C(=O)OCC(=O)Nc1cccc(C#N)c1` reads 4.80. On to `Cc1ccc(C)c(-n2c(N)c(C(=O)NCCc3ccccc3)c3nc4ccccc4nc32)c1`, for which the IC50 is > 50 µM (inactive). Take `Oc1cc(OCc2cccc(C(F)(F)F)c2)ccc1-c1ccn[nH]1`: the pIC50 is 5.42. With `Cc1ccc(-n2c(-c3ccccc3)cn3c4c(=O)[nH]c(=O)n(C)c4nc23)cc1Cl`, the pIC50 was 6.52. `COc1cc(NC(=O)c2cc(CN3CCOCC3)on2)cc(OC)c1`: the pIC50 was 4.69. Regarding `COc1cccc(NC(=O)Nc2ccc(NC(C)=O)cc2)c1`, the pIC50 was 5.39. On to `C=C1CCC2[C@](C)(CCC[C@]2(C)C(=O)OC)[C@H]1CCc1ccoc1C[N+](C)(C)Cc1ccccc1` (stereo partly specified), for which the pIC50 was 4.70.

Regarding `CO/C=C/C(=O)c1cc2cnc3c(=N)cc(NC(C)=O)c([nH]1)c23`, the IC50 is > 50 µM (inactive). For the compound `O=C(/C=C/c1ccco1)c1cccc([N+](=O)[O-])c1`, the negative logarithm of the IC50 (pIC50) is 4.66. Take `Cn1ccnc1CN1C[C@H]2CCN(c3ncccn3)C[C@H]2C1`: the IC50 is > 50 µM (inactive). For `CC12c3ccc4c(c3C(=O)c3occ(c31)C(=O)CC2O)CCC4=O` (stereo unspecified), the IC50 is > 50 µM (inactive). In the case of `CCCCc1nc2sc3c(SCC(=O)NCc4ccccc4)ncnc3c2c2c1CCC2`, the pIC50 is 4.41. On to `Cc1ccc(NC2=NC(c3ccco3)n3c(nc(C)cc3=O)N2)c(C)c1` (stereo unspecified), for which the pIC50 is 5.08.

With `Cc1ccc(CN2CCCn3nc(C(=O)NCc4ccccc4C)cc3C2=O)cc1`, the negative-log IC50 (pIC50) was 4.34. Consider `Cc1ccc(C(=O)Nc2cc3c4c(c2)CC(=O)N4CCC3)cc1`, for which the pIC50 is 5.08.

(Values after PubChem BioAssay AID1645866 (Buhrlage Lab, Dana-Farber Cancer Institute and Novartis …, 2021).)
